Legend:
[1] = tested on: dog; settings: Chronic toxicity; beagle; Oral; Gavage/Intubation; dose end: 52 week; group: systemic; systemic / in life observation / body weight / body weight gain + systemic / in life observation / clinical signs / emesis + systemic / in …
[2] = tested on: mouse; settings: Combined chronic toxicity/carcinogenicity; b6c3f1; Oral; Feed; dose end: 24 month; group: systemic; systemic / pathology microscopic / liver / accentuated lobular pattern
[3] = tested on: rat; settings: Subchronic oral toxicity in rodents, fischer, Feed, dose end: 90 day, group: systemic
[4] = tested on: mouse; settings: Carcinogenicity, b6c3f1, Injection, Intraperitoneal, dose end: 52 week, group: systemic
[5] = tested on: rat; settings: Subchronic oral toxicity in rodents, sprague dawley, Injection, Intraperitoneal, dose end: 45 day, group: systemic
[6] = tested on: rat; settings: Carcinogenicity, sprague dawley, Injection, Intraperitoneal, dose end: 52 week, group: systemic
[7] = tested on: rat; settings: Combined chronic toxicity/carcinogenicity; sprague dawley; Oral; Feed; dose end: 24 month; group: systemic; systemic / organ weight / liver / relative to body weight + systemic / pathology microscopic / liver / hypertrophy + systemic / pathology …
[8] = tested on: mouse; settings: Carcinogenicity, b6c3f1, Oral, Feed, dose end: 24 month, group: systemic
[9] = tested on: rat; settings: Subchronic oral toxicity in rodents, sprague dawley, Feed, dose end: 13 week, group: systemic, systemic / clinical chemistry / cholesterol / cholesterol + systemic / organ weight / liver / relative to body weight + systemic / pathology…
[10] = tested on: dog; settings: Chronic toxicity; beagle; Oral; Feed; dose end: 52 week; group: systemic; systemic / clinical chemistry / alkaline phosphatase (alp/alk) / alkaline phosphatase (alp/alk) + systemic / organ weight / liver / absolute…
[11] = tested on: rat; settings: Multigenerational reproductive toxicity study, sprague dawley, Oral, Feed, dose end: 2 generation
[12] = systemic / organ weight / liver / relative to body weight + systemic / organ weight / kidney / relative to body weight
[13] = systemic / in life observation / mortality / mortality
[14] = systemic / pathology microscopic / peritoneum / sarcoma + systemic / in life observation / body weight / body weight + systemic / in life …
[15] = systemic / in life observation / clinical signs / distended abdomens + systemic / in life observation / mortality / mortality + systemic / …
[16] = systemic / in life observation / mortality / mortality + systemic / pathology microscopic / peritoneum / sarcoma
[17] = systemic / in life observation / mortality / mortality + systemic / pathology microscopic / peritoneum / sarcoma + systemic / in life …
[18] = systemic / pathology gross / liver / enlarged + systemic / pathology gross / liver / mass + systemic / pathology gross / liver / nodule(s…
[19] = group: offspring, systemic / in life observation / body weight / offspring (pup) weight
[20] = group: parental, systemic / in life observation / body weight / body weight + systemic / in life observation / food consumption / food consumption + systemic…

Compound: Oc1ccccc1-c1ccccc1 [2-Phenylphenol]
- LEL [1]: 300 mg/kg/day
- LOAEL [1]: 300 mg/kg/day
- NEL [1]: 100 mg/kg/day
- NOAEL [1]: 100 mg/kg/day
- LEL [2]: 250 mg/kg/day
- LOAEL [2]: 250 mg/kg/day
- NEL [2]: < 250 mg/kg/day
- NOAEL [2]: < 250 mg/kg/day
- LOAEL ([3]; systemic / in life observation / body weight / body weight + systemic / in life observation / body weight / body weight gain): 763 mg/kg/day
- NOAEL ([3]; systemic / in life observation / body weight / body weight + systemic / in life observation / body weight / body weight gain + systemic / in…): 377 mg/kg/day
- LEL [3, 12]: 377 mg/kg/day
- NEL [3, 12]: < 377 mg/kg/day

Compound: CC(COc1ccccc1)N(CCCl)Cc1ccccc1.Cl (stereo not drawn) [Phenoxybenzamine hydrochloride]
- LEL [4, 13]: 12.5 mg/kg/day
- NEL [4, 13]: < 12.5 mg/kg/day
- LOAEL [4, 14]: > 25 mg/kg/day
- NOAEL [4, 14]: ≥ 25 mg/kg/day
- LEL ([5]; systemic / in life observation / clinical signs / distended abdomens): 15 mg/kg/day
- LOAEL [5, 15]: > 30 mg/kg/day
- NEL [5, 15]: 7.5 mg/kg/day
- NOAEL [5, 15]: ≥ 30 mg/kg/day
- LEL [6, 16]: 5 mg/kg/day
- NEL [6, 16]: < 5 mg/kg/day
- LOAEL [6, 17]: > 10 mg/kg/day
- NOAEL [6, 17]: ≥ 10 mg/kg/day

Compound: C#CC(C)(C)NC(=O)c1cc(Cl)cc(Cl)c1 [Propyzamide]
- LEL [7]: 48.8 mg/kg/day
- LOAEL [7]: 48.8 mg/kg/day
- NEL [7]: 10.1 mg/kg/day
- NOAEL [7]: 10.1 mg/kg/day
- LOAEL ([8]; systemic / pathology gross / liver / enlarged + systemic / pathology gross / liver / mass + systemic / pathology gross / liver / nodule(s)): 75 mg/kg/day
- LEL [8, 18]: 75 mg/kg/day
- NEL [8, 18]: 15 mg/kg/day
- NOAEL [8, 18]: 15 mg/kg/day
- LEL [9]: 60 mg/kg/day
- LOAEL [9]: 60 mg/kg/day
- NEL [9]: 12.3 mg/kg/day
- NOAEL [9]: 12.3 mg/kg/day
- LEL [10]: 33.1 mg/kg/day
- LOAEL [10]: 33.1 mg/kg/day
- NEL [10]: 11.9 mg/kg/day
- NOAEL [10]: 11.9 mg/kg/day
- LEL [11, 19]: 114 mg/kg/day
- LOAEL [11, 19]: 114 mg/kg/day
- NEL [11, 19]: 15.4 mg/kg/day
- NOAEL [11, 19]: 15.4 mg/kg/day
- LEL [11, 20]: 114 mg/kg/day
- LOAEL [11, 20]: 114 mg/kg/day
- NEL [11, 20]: 15.4 mg/kg/day
- NOAEL [11, 20]: 15.4 mg/kg/day
